Results taken from paper PMC10775177, “Application of the C3-Methyltransferase StspM1 for the Synthesis of the Natural Pyrroloindole Motif” (ACS Catalysis, 2023).

Tests used:
StspM1 = tested on: T1, StspM1; assay: MTase-Glo bioluminescence assay (SAH formation), Michaelis-Menten; format: biochemical, Streptomyces sp. HPH0547
T1 construct: recombinant from E. coli BL21 Gold (DE3), Ni-NTA purified

[1] = target: C3-methyltransferase StspM1 from Streptomyces sp. HPH0547 (Streptomyces sp. HPH0547); assay: SEC; size exclusion chromatography to determine the oligomerization state; measured weight 70.5 kDa against 61.8 kDa for a dimer

O=C1N[C@@H](Cc2c[nH]c3ccccc23)C(=O)N[C@H]1Cc1c[nH]c2ccccc12 [7a, LL-cWW]
Km (StspM1; first methylation, 1.5 μM enzyme, co-substrate SAM fixed at 50 μM, cWW 0.2-200 μM): 3.86 µM

O=C1N[C@H](Cc2c[nH]c3ccccc23)C(=O)N[C@@H]1Cc1c[nH]c2ccccc12 [7b, DD-cWW]
Km (StspM1; first methylation, 1.5 μM enzyme, co-substrate SAM fixed at 50 μM, cWW 0.2-200 μM, compound label misprinted as 7c): 14.8 µM

C[C@@]12C[C@H]3C(=O)N[C@@H](Cc4c[nH]c5ccccc45)C(=O)N3[C@@H]1Nc1ccccc12 [compound 14, single-methylated LL-cWW]
Km (StspM1; second methylation step): 32.5 µM

C3-methyltransferase StspM1 from Streptomyces sp. HPH0547 (enzyme)
stoichiometry N [1]: 2
